Experimental findings from US20110104055A1, “SUBSTITUTED N-ARYL BENZAMIDES AND RELATED COMPOUNDS FOR TREATMENT OF AMYLOID DISEASES AND SYNUCLEINOPATHIES” (priority 2002, published 2011) are described below.

Holding throughout (type): biochemical
The target of assay [1] is T1, α-synuclein fibrils (Homo sapiens, UniProt P37840).
T1 construct: purchased rPeptide
The experiment in a line: Congo red binding assay, α-synuclein fibrils (Example 12). To be noted: 3-day incubation. Here is the method:
(§1) In the Congo red binding assay, the ability of a given test compound to alter amyloid (in this case, α-synuclein) binding to Congo red is quantified. In this assay, α-synuclein and test compounds were incubated for 3 days and then vacuum filtered through a 0.2 μm filter. The amount of α-synuclein retained in the filter was then quantitated following staining of the filter with Congo red. After appropriate washing of the filter, any lowering of the Congo red color on the filter in the presence of the test compound (compared to the Congo red staining of the amyloid protein in the absence of the test compound) was indicative of the test compound's ability to diminish/alter the amount of aggregated and congophilic α-synuclein.
In one study, the ability of α-synuclein fibrils to bind Congo red in the absence or presence of increasing amounts of compounds DC-0051-F1, F2, F3, F4, F5, F6 and EDTA (at α-synuclein:test compound weight ratios of 1:1, 1:0.1, 1:0.01 or 1:0.001) was determined.

For assay [2], the target named is T2, Aβ 1-42 fibrils (Homo sapiens, UniProt P05067).
T2 construct: purchased Bachem Inc
The experiment in a line: Congo red binding assay, Aβ 1-42 fibrils (Example 11). To be noted: 3-day incubation. The method, then:
as §1, with “a” for “a given”, “Aβ)” for “α-synuclein)”, “Aβ 1-42” for “α-synuclein”, “Aβ.” for “α-synuclein.”
In one study, the ability of Aβ fibrils to bind Congo red in the absence or presence of increasing amounts of the compounds or EDTA (at Aβ:test compound weight ratios of 1:1, 1:0.1, 1:0.01 or 1:0.001) was determined.

The target of assay [3] is T1, α-synuclein fibrils. The experiment in a line: Thioflavin T fluorometry, disruption of pre-formed α-synuclein fibrils (Example 12). The conditions noted are these: 3 days; for disruption/disassembly of pre-formed α-synuclein fibrils, in words: Thioflavin T fluorometry, all concentrations tested; for % Inhibition α-synuclein (result ± S.D.), Thioflavin T fluorometry: 30 μg pre-fibrillized α-synuclein, 37° C. The method, then:
In this assay, Thioflavin T binds specifically to α-synuclein fibrils, and this binding produces a fluorescence enhancement at 485 nm that is directly proportional to the amount of α-synuclein fibrils present. The higher the fluorescence, the greater the amount of α-synuclein fibrils present (Naki et al, Lab. Invest. 65:104-110, 1991; Levine III, Protein Sci. 2:404-410, 1993; Amyloid: Int. J. Exp. Clin. Invest. 2:1-6, 1995).
In this study, 30 μg of pre-fibrillized α-synuclein (rPeptide) was incubated at 37° C. for 3 days either alone or in the presence of compounds DC-0051-F1, F2, F3, F4, F5, F6 or EDTA (at α-synuclein:test compound weight ratios of 1:1, 1:0.1, 1:0.01 or 1:0.001). Following 3-days of co-incubation, 50 μl of each incubation mixture was transferred into a 96-well microtiter plate containing 150 μl of distilled water and 50 μl of a Thioflavin T solution (i.e. […] Thioflavin T in 250 mM phosphate buffer, pH 6.8). The fluorescence was read at 485 nm (444 nm excitation wavelength) using an ELISA plate fluorometer after subtraction with buffer alone or compound alone, as blank.

The target of assay [4] is T2, Aβ 1-42 fibrils. The experiment in a line: Thioflavin T fluorometry, disruption of pre-formed Aβ 1-42 fibrils (Example 11). To be noted: 30 μg pre-fibrillized Aβ 1-42, 37° C., 3 days. An excerpt:
In one study, Thioflavin T fluorometry was used to determine the effects of the compounds, and of EDTA (as a negative control). In this assay Thioflavin T binds specifically to fibrillar amyloid, and this binding produces a fluorescence enhancement at 485 nm that is directly proportional to the amount of amyloid fibrils formed. The higher the fluorescence, the greater the amount of amyloid fibrils formed (Naki et al., Lab. Invest. 65:104-110, 1991; Levine III, Protein Sci. 2:404-410, 1993; Amyloid: Int. J. Exp. Clin. Invest. 2:1-6, 1995).
Following 3-days of co-incubation, 50 μl of each incubation mixture was transferred into a 96-well microtiter plate containing 150 μl of distilled water and 50 μl of a Thioflavin T solution (i.e. 500 mM Thioflavin T in 250 mM phosphate buffer, pH 6.8). The fluorescence was read at 485 nm (444 nm excitation wavelength) using an ELISA plate fluorometer after subtraction with buffer alone or compound alone, as blank.

[5] abbreviates: α-synuclein:test compound wt/wt ratio 1:0.001.
Where [6] appears, read: α-synuclein:test compound wt/wt ratio 1:0.01.
The mark [7] stands for this setting: α-synuclein:test compound wt/wt ratio 1:0.1.
[8] abbreviates: α-synuclein:test compound wt/wt ratio 1:1.
[9] abbreviates: Aβ:test compound wt/wt ratio 1:0.001.
Where [10] appears, read: Aβ:test compound wt/wt ratio 1:0.01.
Where [11] appears, read: Aβ:test compound wt/wt ratio 1:0.1.
Setting [12] is: Aβ:test compound wt/wt ratio 1:1.

T2 sequence (P05067 672-713): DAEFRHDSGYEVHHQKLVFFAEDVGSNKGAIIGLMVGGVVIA

For `O=C(Nc1cc(O)c(O)cc1F)c1ccc(O)c(O)c1` [DC-0051-F5, N-(2-fluoro-4,5-dihydroxyphenyl)-3,4-dihydroxybenzamide], the “% Inhibition α-synuclein (result ± S.D.), Congo red binding” value at α-synuclein fibrils [1] (setting [5]) was determined as 0.0 ± 1.01%; at α-synuclein fibrils [1] (setting [6]) it was 5.0 ± 5.47%; on α-synuclein fibrils [1] (setting [7]), 32.7 ± 3.96%; at α-synuclein fibrils [1] (setting [8]) it was 69.4 ± 0.13%. The “% Inhibition Aβ (result ± S.D.), Congo red binding” value at Aβ 1-42 fibrils [2] (setting [9]) was 0.0 ± 2.50%; at Aβ 1-42 fibrils [2] (setting [10]), 9.8 ± 2.54%; on Aβ 1-42 fibrils [2] (setting [11]), 25.7 ± 5.69%; on Aβ 1-42 fibrils [2] (setting [12]) it was 69.9 ± 2.06%. In addition, on α-synuclein fibrils [3], the “disruption/disassembly of pre-formed α-synuclein fibrils, in words” value was “dose-dependent disruption/disassembly”. In addition, the “% Inhibition α-synuclein (result ± S.D.), Thioflavin T fluorometry” value on α-synuclein fibrils [3] (setting [5]) stood at 5.9 ± 10.41%; at α-synuclein fibrils [3] (setting [6]), 59.0 ± 1.18%; on α-synuclein fibrils [3] (setting [7]) it was 94.7 ± 1.70%; on α-synuclein fibrils [3] (setting [8]), 98.9 ± 0.65%. The “% Inhibition Aβ (result ± S.D.), Thioflavin T fluorometry” value at Aβ 1-42 fibrils [4] (setting [9]) turned out to be 19.5 ± 1.49%; at Aβ 1-42 fibrils [4] (setting [10]), 43.9±2.01%; on Aβ 1-42 fibrils [4] (setting [11]), 91.8±0.22%; on Aβ 1-42 fibrils [4] (setting [12]) it was 99.8 ± 0.40%.
On to `O=C(Nc1ccc(O)c(O)c1F)c1ccc(O)c(O)c1` [DC-0051-F6, N-(2-fluoro-3,4-dihydroxyphenyl)-3,4-dihydroxybenzamide], for which the “% Inhibition α-synuclein (result ± S.D.), Congo red binding” value is on record as 0.0 ± 4.20% at α-synuclein fibrils [1] (setting [5]), 1.4 ± 5.69% on α-synuclein fibrils [1] (setting [6]), 29.9 ± 2.41% at α-synuclein fibrils [1] (setting [7]) and 59.8 ± 3.62% at α-synuclein fibrils [1] (setting [8]). Moreover, the “% Inhibition Aβ (result ± S.D.), Congo red binding” value stood at 3.7 ± 3.24% on Aβ 1-42 fibrils [2] (setting [9]), 6.8 ± 1.51% on Aβ 1-42 fibrils [2] (setting [10]), 18.3 ± 5.32% on Aβ 1-42 fibrils [2] (setting [11]) and 68.0 ± 2.11% at Aβ 1-42 fibrils [2] (setting [12]). Moreover, at α-synuclein fibrils [3], the “disruption/disassembly of pre-formed α-synuclein fibrils, in words” value is reported as “dose-dependent disruption/disassembly”. The “% Inhibition α-synuclein (result ± S.D.), Thioflavin T fluorometry” value on α-synuclein fibrils [3] (setting [5]) worked out at 4.2 ± 5.02%; on α-synuclein fibrils [3] (setting [6]), 56.2 ± 1.49%; at α-synuclein fibrils [3] (setting [7]), 94.7 ± 0.68%; at α-synuclein fibrils [3] (setting [8]), 100.0 ± 1.98%. Besides, the “% Inhibition Aβ (result ± S.D.), Thioflavin T fluorometry” value at Aβ 1-42 fibrils [4] (setting [9]) stood at 9.6 ± 0.96%; on Aβ 1-42 fibrils [4] (setting [10]) it was 36.8 ± 3.43%; on Aβ 1-42 fibrils [4] (setting [11]) it was 88.0 ± 1.09%; at Aβ 1-42 fibrils [4] (setting [12]), 99.4 ± 0.86%.
